Data taken from ChEMBL document CHEMBL1132741, “Novel antifungals based on 4-substituted imidazole: a combinatorial chemistry approach to lead discovery and optimization” (Bioorg Med Chem Lett, 2000).
≈ marks a conversion by molar mass, not a printed value.

Experiments:
[1] = Antifungal activity against molds expressed as negative log (pLAD value).; format: functional, mould
Saccharomyces cerevisiae = test: Antifungal activity against yeast expressed as negative log (pLAD value).; format: functional
Candida tropicalis = test: Minimum inhibitory concentration of compound for antifungal activity against Candida tropicalis; format: functional
Sporothrix schenckii = test: Minimum inhibitory concentration of compound for antifungal activity against Sporothrix schenck ii; format: functional
Candida albicans [2] = test: Minimum inhibitory concentration of compound for antifungal activity against Candida albicans 4; format: functional
Cryptococcus neoformans = test: Minimum inhibitory concentration of compound for antifungal activity against Cryptococcus neoformans; format: functional
Candida parapsilosis = test: Minimum inhibitory concentration of compound for antifungal activity against Candida parapsilosis; format: functional; conditions: Lodderomyces parapsilosis
Pichia kudriavzevii = test: Minimum inhibitory concentration of compound for antifungal activity against Candida krusei; format: functional
Aspergillus fumigatus = test: Minimum inhibitory concentration of compound for antifungal activity against Aspergillus fumigatus; format: functional
Candida albicans [3] = test: Minimum inhibitory concentration of compound for antifungal activity against Candida albicans 1; format: functional
Nakaseomyces glabratus = test: Minimum inhibitory concentration of compound for antifungal activity against Candida glabrata; format: functional
Microsporum canis = test: Minimum inhibitory concentration of compound for antifungal activity against Mucosporam canis; format: functional
Trichophyton benhamiae = test: Minimum inhibitory concentration of compound for antifungal activity against Trichophyton mentagrophytes; format: functional, Arthroderma benhamiae
Kluyveromyces marxianus = test: Minimum inhibitory concentration of compound for antifungal activity against Candida kefyr; format: functional
Candida albicans [4] = test: Minimum inhibitory concentration of compound for antifungal activity against Candida albicans 2; format: functional
Trichophyton rubrum = test: Minimum inhibitory concentration of compound for antifungal activity against Trichophyton rubrum; format: functional
Candida albicans [5] = test: Inhibition of ergosterol synthesis as measured in Candida albicans subcellular screen; format: functional

SMILES | pLADm [1] | pLADy (Saccharomyces cerevisiae) | further results
CCCCOc1ccc(S(=O)(=O)N(Cc2c[nH]cn2)[C@H](C)C2CCCCC2)cc1 | 4.6 | 6.13 | 
CCCCOc1ccc(S(=O)(=O)N(Cc2c[nH]cn2)[C@@H](C)C2CCCCC2)cc1 | 5 | 5.9 | 
CCCCOc1ccc(S(=O)(=O)N(CCc2ccc(F)cc2)CC2=CNC(C)N2)cc1 (centres undefined) | 3.92 | 3.95 | 
CCCCOc1ccc(S(=O)(=O)N(Cc2c[nH]cn2)C(CC)C2CCCCC2)cc1 (centres undefined) | 5 | >6.8 | MIC (Candida tropicalis): 1 µM (≈ 0.434 µg/mL); MIC (Sporothrix schenckii): > 10 µM; MIC (Candida albicans [2]): < 0.1 µM; MIC (Cryptococcus neoformans): 1 µM (≈ 0.434 µg/mL); MIC (Candida parapsilosis): < 0.1 µM; MIC (Pichia kudriavzevii): 1 µM (≈ 0.434 µg/mL); MIC (Aspergillus fumigatus): > 10 µM; MIC (Candida albicans [3]): > 10 µM; MIC (Nakaseomyces glabratus): 1 µM (≈ 0.434 µg/mL); MIC (Microsporum canis): 1 µM (≈ 0.434 µg/mL); MIC (Trichophyton benhamiae): 10 µM (≈ 4.34 µg/mL); MIC (Kluyveromyces marxianus): < 0.1 µM; MIC (Candida albicans [4]): < 0.1 µM; MIC (Trichophyton rubrum): 1 µM (≈ 0.434 µg/mL)
CCCCOc1ccc(S(=O)(=O)N(CC2CCCCC2)C(C)c2c[nH]cn2)cc1 (centres undefined) | 4 | 6.3 | 
CCCCOc1ccc(S(=O)(=O)N(Cc2c[nH]cn2)CC2CCCCC2)cc1 | 3.6 | 6.1 | 
CC(C)C(C(C)C)N(Cc1c[nH]cn1)S(=O)(=O)c1cc(Cl)sc1Cl | 4.5 | 6.3 | IC50 (Candida albicans [5]): 71 nM
CCCCOc1ccc(S(=O)(=O)N(CC2CCCCC2)C(c2ccccc2)c2c[nH]cn2)cc1 (centres undefined) | 4 | 5.1 | 
CCCCOc1ccc(S(=O)(=O)N(CCc2ccc(F)cc2)Cc2nc[nH]n2)cc1 | 3.92 | 3.95 | 
CCCCCCN(Cc1c[nH]cn1)S(=O)(=O)c1ccc(OCCCC)cc1 | 5.2 | 6.1 | IC50 (Candida albicans [5]): 76 nM
CCCCOc1ccc(S(=O)(=O)N(CCCCc2ccccc2)Cc2c[nH]cn2)cc1 | 5.2 | 5.4 | IC50 (Candida albicans [5]): 27 nM
